Test results reported in patent US20040019018A1, “Rigid pyrrolidone modulators of pkc” (priority 2003, published 2004).

How the values were obtained:
[1] = system: LNCaP prostate cancer cells; assay: Induction of apoptosis in LNCaP prostate cancer cells (DAPI staining); format: cell-based
Protocol: The capacity of inducing apoptosis by compound (1) was evaluated in a model of LNCaP prostate cancer cells. It is well established that in this model phorbol esters (e.g., PMA) activate PKC to induce apoptosis (reference 13). LNCaP cells were treated with compound (1) for 1 h, and apoptosis was assessed 24 h later.
Control cells or cells infected for 14 h with adenoviruses for LacZ, PKCα, or PKCδ (multiplicity of infection=10 pfu/cell) were treated with different concentrations of compound (1) or PMA for 1 h. Cells were collected 24 h later and stained with DAPI. The incidence of apoptosis in each preparation was analyzed by counting 500 cells and determining the percentage of apoptotic cells. Results are the mean±standard error of three independent experiments.
It is well established that PKCα and PKCδ are the isozymes that mediate phorbol ester-induced apoptosis in LNCaP cells (references 13c-e). A model that has been used to assess isozyme-specificity is the overexpression of specific PKCs by an adenoviral system. Infection of LNCaP cells with adenoviruses for PKCs leads to a high expression of the corresponding PKC isozyme, as determined by Western-blot analysis, kinase activity, or [^3H]PDBu binding (reference 13e).

sAPP = details: cited from earlier work
PC12 cells = details: cited from earlier work
113pS K+ channels = details: cited from earlier work

CCCCCCCCCCCCCC(=O)O[C@@H]1[C@@H](C)[C@@]2(O)[C@@H](C=C(CO)C[C@]3(O)C(=O)C(C)=C[C@@H]23)[C@@H]2C(C)(C)[C@]12OC(C)=O [PMA, reference compound]
apoptotic effect with control adenovirus ([1]; LNCaP cells infected with LacZ adenovirus): did not affect the apoptotic effect
apoptotic response with overexpression of PKC isozymes ([1]; LNCaP cells infected with adenoviruses for PKCα or PKCδ): marked potentation

CN[C@@H]1C[C@H]2O[C@@](C)([C@@H]1OC)n1c3ccccc3c3c4c(c5c6ccccc6n2c5c31)C(=O)NC4 [Staurosporine]
effect on BL-induced sAPP secretion (sAPP; control and AD fibroblasts): eliminated the effects of BL

CCCCCCCCC#Cc1ccc2c(c1)C[C@@H](CO)NC(=O)[C@H](C(C)C)N2C [BL, (2S, 5S)-8-(1-decynyl)benzolactam]
sAPP secretion (PC12 cells): ~3 fold
sAPP secretion in control fibroblasts (sAPP; control fibroblasts, 10 μM BL): significant increases of sAPP secretion
sAPP secretion over basal levels (sAPP; fibroblasts): enhance sAPP secretion over basal levels
responsiveness of AD fibroblast cell lines to the TEA challenge (113pS K+ channels): restored the responsiveness
